Laboratory results reported in patent US11267794B2, “Benzothia(di)azepine compounds and their use as bile acid modulators” (Albireo AB, priority 2019, dated 2022).

Assays:
hIBAT = biological target: T1, hIBAT (Homo sapiens, UniProt Q12908); assay: IBAT (h/m) assay, 3H-taurocholic acid uptake in human IBAT-overexpressing cells; type: cell-based; details: 0.25 μM 3H-taurocholic acid and 5 μM cold taurocholic acid, 20 minutes
T1 construct: expressed in transfected cells; kept under Puromycin selection
T1 sequence (Q12908 1-348): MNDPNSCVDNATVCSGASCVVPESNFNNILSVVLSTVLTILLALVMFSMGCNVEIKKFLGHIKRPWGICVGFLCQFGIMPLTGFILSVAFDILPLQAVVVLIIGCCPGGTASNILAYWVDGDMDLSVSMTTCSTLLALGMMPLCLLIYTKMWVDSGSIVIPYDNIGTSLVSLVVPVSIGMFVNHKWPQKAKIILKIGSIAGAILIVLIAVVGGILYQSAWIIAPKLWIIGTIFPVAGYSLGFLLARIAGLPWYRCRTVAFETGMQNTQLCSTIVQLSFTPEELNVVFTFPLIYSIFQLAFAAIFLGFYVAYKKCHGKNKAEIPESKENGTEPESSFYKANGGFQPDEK
Method: 10,000 cells (Human or Mouse IBAT-overexpressing cells) were seeded in 96-wells plate (Corning CLS3809) in 200 μL MEM-alpha medium (Gibco 12571-063) supplemented with 10% FBS (Gibco 10438026) containing Puromycin (Gibco A1113803) (10 μg/mL) and incubated at 37° C. in 5% CO2 for 48 hours. After incubation, media was decanted from the wells and cells were washed two times with 300 μL of basal MEM-alpha medium (FBS-free). After decanting basal MEM-alpha medium each time, plates were tapped against paper towel to ensure maximum removal of residual media. Test inhibitor dilutions (highest test concentration being 10 μM, 3-fold serial dilution, 10 points) prepared in DMSO (Sigma D2650) were added in incubation mix (maintaining 0.2% final DMSO concentration) containing 0.25 μM 3H-taurocholic acid (ARC ART-1368) and 5 μM of cold taurocholic acid (Sigma T4009). 50 μL of incubation mix containing test inhibitors was then added to the wells (in duplicate) and the plates were incubated for 20 minutes in a CO2 incubator at 37° C. After incubation, the reaction was stopped by keeping the plates on ice water mix for 2-3 minutes and then the incubation mix was aspirated completely from the wells. The wells were washed two times with 250 μL of chilled unlabelled 1 mM taurocholic acid dissolved in HEPES (Gibco 15630080)-buffered (10 mM) HBSS (Gibco 14175079) (pH 7.4). The plates were tapped against a paper towel after every wash to ensure maximum removal of blocking buffer.
(§1) 100 μL of MicroScint-20 (PerkinElmer 6013621) was added to the wells and kept overnight at room temperature before reading the plates in TopCount NXT™ Microplate Scintillation and Luminescence Counter from PerkinElmer under 3H Test protocol (set at 120 seconds reading time per well).
(§2) All test compounds were provided in powder form at room temperature. 10 mM DMSO stocks of the test compounds were prepared, aliquoted and stored at −20° C. From the 10 mM DMSO stock of the compounds, a 3-fold serial dilution in DMSO was prepared to get a total of 10 dilutions of the test compounds. 0.5 μL of this dilution in DMSO was added to 250 μL of FBS-free basal media containing 3H-taurocholic acid and cold taurocholic acid to prepare the incubation mixture.

hLBAT = biological target: T2, hLBAT (Homo sapiens, UniProt Q14973); assay: LBAT (h/m) assay, 3H-taurocholic acid uptake in human LBAT-overexpressing cells; type: cell-based; details: 0.3 μM 3H-taurocholic acid and 7.5 μM cold taurocholic acid, 20 minutes
T2 construct: expressed in transfected cells; kept under Geneticin selection
T2 sequence (Q14973 1-349): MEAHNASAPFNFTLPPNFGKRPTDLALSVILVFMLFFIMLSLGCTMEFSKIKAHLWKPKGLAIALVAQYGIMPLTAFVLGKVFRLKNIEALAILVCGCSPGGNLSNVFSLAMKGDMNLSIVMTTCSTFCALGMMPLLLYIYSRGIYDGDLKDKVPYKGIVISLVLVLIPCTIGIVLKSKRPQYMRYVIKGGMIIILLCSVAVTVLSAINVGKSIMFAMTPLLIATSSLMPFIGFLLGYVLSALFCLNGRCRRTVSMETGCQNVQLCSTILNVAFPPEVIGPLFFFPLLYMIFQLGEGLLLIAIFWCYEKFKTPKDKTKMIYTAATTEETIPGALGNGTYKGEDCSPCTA
Method: 20,000 cells (Human or Mouse LBAT-overexpressing cells) were seeded in 96-wells plate (Corning CLS3809) in 100 μL MEM-alpha medium (Gibco 12571-063) supplemented with 10% FBS (Gibco 10438026) containing Geneticin (Gibco 10131-027) (1 mg/mL) and incubated at 37° C. in 5% CO2 for 24 hours. After incubation, media was decanted from the wells and cells were washed two times with 300 μL of basal MEM-alpha medium (FBS-free). After decanting basal MEM-alpha medium each time, plates were tapped against paper towel to ensure maximum removal of residual media. For human LBAT, incubation mix was prepared by adding test inhibitor dilutions (3-fold serial dilution in DMSO (Sigma D2650), 10 points) in MEM-alpha (without FBS) containing 0.3 μM 3H-taurocholic acid (ARC ART-1368) and 7.5 μM cold taurocholic acid (Sigma T4009) (maintaining 0.2% final DMSO concentration). For mouse LBAT, incubation mix was prepared by adding test inhibitor dilutions (3-fold serial dilution in DMSO, 10 points) in MEM-alpha (without FBS) containing 0.3 μM 3H-taurocholic acid and 25 μM cold taurocholic acid maintaining 0.2% final DMSO concentration). 50 μL of incubation mix containing test inhibitors was then added to the wells (in duplicate) and the plates were incubated for 20 minutes in a CO2 incubator at 37° C. After incubation, the reaction was stopped by keeping the plates on ice water mix for 2-3 minutes and then the incubation mix was aspirated completely from the wells. The wells were washed two times with 250 μL of chilled unlabelled 1 mM taurocholic acid dissolved in HEPES (Gibco 15630080)-buffered (10 mM) HBSS (Gibco 14175079) (pH 7.4). The plates were tapped against a paper towel after every wash to ensure maximum removal of blocking buffer.
as §1, with “well, with normal plate orientation).” for “well).”
as §2

[1] = Bidirectional permeability assay (Caco-2 cells); details: human, Caco-2
Method: Caco-2 cells (Evotec) were seeded at a density of 70,000 cells/well in Millicell® 24-well cell culture insert plates and maintained in an incubator (37° C., 5% CO2, 95% RH) for 21 days with media change on alternate days.
Stock solutions (10 mM) of the test compounds, atenolol (low permeability marker), propranolol (high permeability marker) and digoxin (substrate for P-gp transport pathway) were prepared in dimethylsulfoxide (DMSO). An intermediate stock solution (1 mM) was prepared by diluting 10 μL of 10 mM master stock solution with 90 μL of neat DMSO. A working stock solution (10 μM) was prepared by diluting 50 μL of 1 mM with 4950 μL of FaSSIF buffer. Post addition of compounds to the FaSSIF, samples were subjected to sonication for 2 hours, and centrifuged at 4000 RPM for 30 minutes at 37° C. The 4 mL of resultant supernatant was directly used in the assay. The final DMSO concentration in the transport experiments was 1%.
On the day of assay, Caco-2 monolayers were washed twice with transport buffer (HBSS, pH 7.4) and pre-incubated for 30 min (37° C., 5% CO2, 95% RH) in an incubator. The electrical resistance of the monolayers was measured with a Millicell®—ERS system. Monolayers with trans-epithelial electrical resistance (TEER) values greater than 350 ohm·cm^2 were selected for the assay.
The assay was conducted in absorptive direction (A2B) and secretory (B2A) directions. Transport experiments were initiated by addition of transport assay buffer (FaSSIF buffer prepared in HBSS) consisting of compounds to the donor compartment (apical chamber A-B; basolateral chamber B-A) in duplicate (n=2) wells. Drug free HBSS buffer (pH 7.4) containing 1% bovine serum albumin (BSA) was introduced to the receiver (A-B-basolateral; B-A-Apical) compartments. The volumes of apical and basolateral compartments were 0.4 and 0.8 mL, respectively. After adding dosing solution, plates were incubated in an incubator for 120 minutes at 37° C. After 120 minutes, donor and receiver samples were collected and matrix matched (1:1, 30 μL study sample+30 μL blank buffer) with the opposite buffer. Dosing samples matrix matched (1:1, 30 μL study sample+30 μL blank buffer) with the opposite buffer. Samples were processed by adding acetonitrile containing internal standard (60 μL study sample+200 μL acetonitrile containing internal standard—Tolbutamide, 500 ng/mL). Samples were vortexed and centrifuged at 4000 rpm for 10 minutes. The obtained supernatant (100 μL) was diluted with 100 μL of water and transferred to fresh 96 well plates. The concentration of compounds in the samples was analyzed by liquid chromatography tandem mass spectrometry (LC-MS/MS) method using discovery grade bio-analytical method, as applicable.
The mean apparent permeability (Papp, ×10^−6 cm/sec) of the test compounds, atenolol, propranolol and digoxin were calculated as follows:

Row | Molecule | IC50 (hIBAT) | IC50 (hLBAT) | Papp A→B at 120 min, 10 µM [1] | Papp B→A at 120 min, 10 µM [1]
1 | CCC[C@@]1(CC)CN(c2ccccc2)c2cc(SC)c(O/C=C(\F)C(=O)O)cc2S(=O)(=O)C1.CCC[C@]1(CC)CN(c2ccccc2)c2cc(SC)c(O/C=C(\F)C(=O)O)cc2S(=O)(=O)C1 (mixture of isomers) [Example 18, (S)—(Z)-3-((3-ethyl-7-(methylthio)-1,1-dioxido-5-phenyl-3-propyl-2,3,4,5-tetrahydro-1,5-benzothiazepin-8-yl)oxy)-2-fluoroacrylic acid and (R)—(Z)-3-((3-ethyl-7-(methylthio)-1,1-dioxido-5-phenyl-3-propyl-2,3,4,5-tetrahydro-1,5-benzothiazepin-8-yl)oxy)-2-fluoroacrylic acid] | 337 nM | 38 nM |  | 
2 | CCCCC1(CC)CN(c2ccccc2)c2cc(N(C)C)c(O/C=C(\F)C(=O)O)cc2S(=O)(=O)N1 (stereo not drawn) [Example 2, (Z)-3-((3-butyl-7-(dimethylamino)-3-ethyl-1,1-dioxido-5-phenyl-2,3,4,5-tetrahydro-1,2,5-benzothiadiazepin-8-yl)oxy)-2-fluoroacrylic acid] | 13 nM | 124 nM | 1.4 ×10⁻⁶ cm/s | 2.4 ×10⁻⁶ cm/s
3 | CCC[C@@]1(CC)CN(c2ccccc2)c2cc(SC)c(O/C=C(\F)C(=O)O)cc2S(=O)(=O)C1.CCC[C@]1(CC)CN(c2ccccc2)c2cc(SC)c(O/C=C(\F)C(=O)O)cc2S(=O)(=O)C1 (mixture of isomers) [Example 19, (S)—(Z)-3-((3-ethyl-7-(methylthio)-1,1-dioxido-5-phenyl-3-propyl-2,3,4,5-tetrahydro-1,5-benzothiazepin-8-yl)oxy)-2-fluoroacrylic acid and (R)—(Z)-3-((3-ethyl-7-(methylthio)-1,1-dioxido-5-phenyl-3-propyl-2,3,4,5-tetrahydro-1,5-benzothiazepin-8-yl)oxy)-2-fluoroacrylic acid] | 283 nM | 5 nM |  | 
4 | (S)-(E)-3-((3-butyl-3-ethyl-5-(4-fluorophenyl)-7-(methylthio)-1,1-dioxido-2,3,4,5-tetrahydro-1,5-benzothiazepin-8-yl)oxy)acrylic acid and (R)-(E)-3-((3-butyl-3-ethyl-5-(4-fluorophenyl)-7-(methylthio)-1,1-dioxido-2,3,4,5 tetrahydro-1,5-benzothiazepin-8-yl)oxy)acrylic acid [Example 9] | 151 nM | 150 nM |  | 
5 | CCCC[C@@]1(CC)CN(c2ccccc2)c2cc(N(C)C)c(O/C=C/C(=O)O)cc2S(=O)(=O)N1.CCCC[C@]1(CC)CN(c2ccccc2)c2cc(N(C)C)c(O/C=C/C(=O)O)cc2S(=O)(=O)N1 (mixture of isomers) [Example 15, (S)-(E)-3-((3-butyl-7-(dimethylamino)-3-ethyl-1,1-dioxido-5-phenyl-2,3,4,5-tetrahydro-1,2,5-benzothiadiazepin-8-yl)oxy)acrylic acid and (R)-(E)-3-((3-butyl-7-(dimethylamino)-3-ethyl-1,1-dioxido-5-phenyl-2,3,4,5-tetrahydro-1,2,5-benzothiadiazepin-8-yl)oxy)acrylic acid] | 66 nM |  |  | 

Next, values leading:

Row | IC50 (hIBAT) | IC50 (hLBAT) | Papp A→B at 120 min, 10 µM [1] | Papp B→A at 120 min, 10 µM [1] | Molecule
6 | 156 nM | 12 nM | 3.8 ×10⁻⁶ cm/s | 4.1 ×10⁻⁶ cm/s | CCCC1(CC)CN(c2ccccc2)c2cc(SC)c(O/C=C(\F)C(=O)O)cc2S(=O)(=O)C1 (stereo not drawn) [Example 12, (Z)-3-((3-ethyl-7-(methylthio)-1,1-dioxido-5-phenyl-3-propyl-2,3,4,5-tetrahydrobenzo-1,5-thiazepin-8-yl)oxy)-2-fluoroacrylic acid]
7 | 565 nM | 218 nM |  |  | CCC1(C(C)C)CN(c2ccccc2)c2cc(SC)c(O/C=C/C(=O)O)cc2S(=O)(=O)C1 (stereo not drawn) [Example 16, (E)-3-((3-ethyl-3-isopropyl-7-(methylthio)-1,1-dioxido-5-phenyl-2,3,4,5-tetrahydro-1,5-benzothiazepin-8-yl)oxy)acrylic acid]
8 | 91 nM | 77 nM |  |  | (S)—(Z)-3-((3-butyl-7-(dimethylamino)-3-ethyl-1,1-dioxido-5-phenyl-2,3,4,5-tetrahydro-1,2,5-benzothiadiazepin-8-yl)oxy)-2-fluoroacrylic acid and (R)—(Z)-3-((3-butyl-7-(dimethylamino)-3-ethyl-1,1-dioxido-5-phenyl-2,3,4,5-tetrahydro-1,2,5-benzothiadiazepin-8-yl)oxy)-2-fluoroacrylic acid [Example 4]
9 | 378 nM | 17 nM |  |  | CCC1(C(C)C)CN(c2ccccc2)c2cc(SC)c(O/C=C(\F)C(=O)O)cc2S(=O)(=O)C1 (stereo not drawn) [Example 17, (Z)-3-((3-ethyl-3-isopropyl-7-(methylthio)-1,1-dioxido-5-phenyl-2,3,4,5-tetrahydro-1,5-benzothiazepin-8-yl)oxy)-2-fluoroacrylic acid]
10 | 260 nM | 97 nM |  |  | CCCC1(CC)CN(c2ccccc2)c2cc(SC)c(O/C=C/C(=O)O)cc2S(=O)(=O)C1 (stereo not drawn) [Example 11, (E)-3-((3-ethyl-7-(methylthio)-1,1-dioxido-5-phenyl-3-propyl-2,3,4,5-tetrahydro-1,5-benzothiazepin-8-yl)oxy)acrylic acid]
11 | 66 nM | 12 nM |  |  | (S)—(Z)-3-((3-butyl-3-ethyl-5-(4-fluorophenyl)-7-(methylthio)-1,1-dioxido-2,3,4,5-tetrahydro-1,5-benzothiazepin-8-yl)oxy)-2-fluoroacrylic acid and (R)—(Z)-3-((3-butyl-3-ethyl-5-(4-fluorophenyl)-7-(methylthio)-1,1-dioxido-2,3,4,5-tetrahydro-1,5-benzothiazepin-8-yl)oxy)-2-fluoroacrylic acid [Example 6]
12 | 7 nM | 118 nM |  |  | CCCCC1(CC)CN(c2ccc(F)cc2)c2cc(SC)c(O/C=C/C(=O)O)cc2S(=O)(=O)C1 (stereo not drawn) [Example 8, (E)-3-((3-butyl-3-ethyl-5-(4-fluorophenyl)-7-(methylthio)-1,1-dioxido-2,3,4,5-tetrahydro-1,5-benzothiazepin-8-yl)oxy)acrylic acid]
